Results: patent US7226746B1, “Method for screening for anti-amyloidogenic properties and method for treatment of neurodegenerative disease” (The Regents of the University of California, priority 1998, dated 2007)

Assays:
[1] = molecular target: T1, β-synuclein δ2 (Homo sapiens, UniProt Q16143, A63V/F71V/H65N/INS70[…]/L66V/S64T/S72E); assay: Inhibition of high temperature aggregation by Congo red (β-synuclein δ2); assay type: biochemical; settings: 20 μM protein, pH 6.9, 65° C., 20 hours, micromolar concentrations of Congo red
T1 construct: 6xHis (cleaved yes); made in house; host or cells: E. coli
Experimental: (§1) In order to test the susceptibility of the newly constructed β-synuclein mutants to aggregation, an aggregation assay can be performed. To do this, 10–20 μM of each of the mutant proteins are incubated in a total volume of 20 μl with a final concentration of 100 mM sodium acetate, pH 6.9. Aggregation can be induced under a variety of conditions, for instance, low pH and high temperature. SDS-PAGE analysis/immunoblotting or Thioflavine-S staining provides means for evaluating the reacted samples, the methods of which are described above and well known to those in the art.
(§2) Since previous studies have shown that the aggregation of amyloidogenic proteins were to some extent inhibited by Congo red, increasing concentrations of Congo red were added in the present aggregation system. […] As is shown in FIG. 5, the monomer bands were slightly but surely stabilized by treatment with micromolar concentrations of Congo red, which is consistent with other reported studies.

[2] = molecular target: T2, NACP/α-synuclein (Homo sapiens, UniProt P37840); assay: Inhibition of high temperature aggregation by Congo red (NACP/α-synuclein); assay type: biochemical; set-up: which encodes full length NACP/α-synuclein 140; 6xHis (cleaved yes); made in house; host or cells: E. coli; settings: 20 μM protein, pH 6.9, 65° C., 20 hours, micromolar concentrations of Congo red
Experimental: as §1, §2

[3] = molecular target: T2, NACP/α-synuclein; assay: Iron-catalyzed oxidative reaction (metal ion plus hydrogen peroxide) aggregation of NACP/α-synuclein, immunoblotting; assay type: biochemical; set-up: which encodes full length NACP/α-synuclein 140; 6xHis (cleaved yes); made in house; host or cells: E. coli DH5α
Experimental: (§3) Prior to experimentation, each of the recombinant proteins need to be desalted by way of passage through PD 10 columns (Pharmacia, Piscataway, N.J.) in water and then adjusted to a final concentration of 5 μM. NACP/α-synuclein protein (1 μl) is incubated in a total volume of 20 μl of buffer containing 20 mM Tris-HCl, pH 7.4. To perform the immuno-blotting analysis, each sample is resolved by SDS-PAGE (15%) and blotted onto nitrocellulose membrane (Schleicher & Schuell, Keene, N.H.). The blotted membrane is blocked with Tris-Buffered saline (TBS; 20 mM Tris-HCl, pH 7.5 and 150 mM NaCl) containing 3% BSA, followed by incubation with anti-C-terminal rabbit polyclonal antibody (1:1000) in TBS containing 1% BSA. The blocked membrane is then incubated with peroxidase-labeled anti-rabbit IgG (Amersham) (1:1000) and visualized using the ECL immuno-blotting system (Amersham, Cleveland, Ohio), the use of which is well known to those in the art.
It was hypothesized that aggregation of NACP/α-synuclein might be linked to the iron-catalyzed oxidative reactions, represented in FIG. 2a, illustrating the hypothesis for the association of NACP/α-synuclein aggregation with iron-catalyzed oxidative reaction (Harber-Weiss reaction). In order to determine if an iron-catalyzed oxidative reaction promotes aggregation of NACP/α-synuclein, the human recombinant form of this molecule was incubated with ferrous ion (100 μM) and hydrogen peroxide. […] Ferrous ion was not included in lanes 8–10. The position of molecular weight markers (kD) are indicated on left). […] Other transition metals were also examined for their effect on NACP/α-synuclein aggregation.

[4] = Specificity of ferric ion-induced aggregation: recombinant synuclein proteins treated with ferric ion, immunoblot; assay type: physicochemical, human; settings: 100 μM ferric ion
Experimental: (§4) The cells are harvested and re-suspended in 50 mM Tris-HCl, pH 8.5, containing protease inhibitors. Following sonication and centrifugation of the re-suspension, the supernatant is applied to a Ni-NTA column and eluted with 20 mM Tris-HCl, pH 8.5, containing 100 mM KCl, 100 mM imidazole, […] v/v glycerol and 10 mM β-mercaptoethanol. The eluted fusion protein is dialyzed against 50 mM Tris-HCl, pH 8.5, cleaved with recombinant TEV protease and again applied to a Ni-NTA column. The recombinant NACP/α-synuclein is isolated in the flow through fractions, pooled and stored at −20° C. until use.
as §3, with “The blocked membrane is then incubated with peroxidase-labeled anti-rabbit IgG (Amersham) (1:1000) and visualized using the ECL immuno-blotting system (Amersham, Cleveland, Ohio), the use of which is well known to those in the art.” left out

[5] = Thioflavine-S staining of ferric ion-induced in vitro aggregates; assay type: physicochemical, human
Experimental: In order to determine if iron-induced NACP/α-synuclein aggregates display amyloid-like characteristics, Thioflavine-S staining is performed.
In order to determine whether the ferric-ion induced in vitro aggregates of NACP/α-synuclein display amyloid-like characteristics, Thioflavine-S staining experiments were performed.

[6] = Aggregation assay under high temperature conditions, SDS-PAGE analysis; assay type: physicochemical, human; settings: 20 μM protein, 100 mM sodium acetate, pH 6.9, 65° C.
Experimental: as §1
Recombinant proteins were produced using a standard E. coli system and high purity products were generated using SDS-PAGE analysis, seen as FIG. 4.
After 8 hours incubation, the bands corresponding to possible dimers became visible and, after 20 hours incubation, bands corresponding to dimers and higher smears in both the separating and stacking portions of the gels was observed.

[7] = Thioflavine-S staining of aggregates formed at pH 6.9, 65 C; assay type: physicochemical, human; settings: pH 6.9, 65 C conditions
Experimental: In order to determine whether the aggregates resulting from aggregation reactions of PROEX-1-β-synuclein 61 and PROEX-1-β-synuclein δ2 display amyloid-like characteristics, 10 μl aliquots of the protein preparations are obtained using the above-described procedures are pipetted onto glass slides and stained with Thioflavine-S. The results are visually analyzed using a confocal microscope, the method of which is well known to those in the art.

[8] = molecular target: T3, human recombinant NACP/α-synuclein 140 (Homo sapiens, UniProt P37840); assay: Ferric ion-induced aggregation of NACP/α-synuclein 140, immunoblotting analysis; assay type: biochemical; settings: 4 hour incubation, pH 7.4, 37° C.; 0-1 mM ferric ion, concentration dependent
T3 construct: which encodes full length NACP/α-synuclein 140; 6xHis (cleaved yes); made in house; host or cells: E. coli DH5α
Experimental: as §4
as §3, with “The blocked membrane is then incubated with peroxidase-labeled anti-rabbit IgG (Amersham) (1:1000) and visualized using the ECL immuno-blotting system (Amersham, Cleveland, Ohio), the use of which is well known to those in the art.” left out

## Nc1c(/N=N/c2ccc(-c3ccc(/N=N/c4cc(S(=O)(=O)O)c5ccccc5c4N)cc3)cc2)cc(S(=O)(=O)O)c2ccccc12 [Congo red]
[1]
  inhibition of aggregation of β-synuclein δ2: partly inhibited aggregation
[2]
  inhibition of aggregation of NACP/α-synuclein: partly inhibited aggregation

## manganese
[3]; in the presence of hydrogen peroxide
  aggregation of NACP/α-synuclein by other transition metals in the presence of hydrogen peroxide: failed to induce the aggregation

## OO [hydrogen peroxide]
[3]; NACP/α-synuclein 1 μM, ferrous ion 100 μM, 1 nM-100 μM H2O2
  aggregation of NACP/α-synuclein with hydrogen peroxide in the presence of ferrous ion: dose-dependent aggregation
[3]; no ferrous ion, 10-100 μM H2O2
  aggregation of NACP/α-synuclein with hydrogen peroxide alone: no remarkable changes

## β-synuclein: human recombinant NACP/α-synuclein-related protein with a partially incomplete NAC domain; non-amyloidogenic
[4]
  aggregation of the protein on treatment with ferric ion: not aggregated
[5]
  Thioflavine-S reactivity of ferric ion-induced aggregates: not
[6]
  aggregation of the protein under high temperature conditions (SDS-PAGE): showed no aggregation
[7]
  Thioflavine-S staining of the protein: negative result

## [Fe+3] [ferric ion]
[8]
  aggregation of NACP/α-synuclein 140 induced by the ion: induced aggregation
